In patent US12090137B2, “Solid Δ9-tetrahydrocannabinol (Δ9-THC) compositions” (CANNA-C[…], priority 2020, dated 2024):

Assay: Flowable powder formation by freeze-drying (lyophilization), Example 1
Type: physicochemical
Procedure: The powder former (amount based on 1:1, 1:2 or 1:4 molar Δ^9-THC:powder former ratio) was dissolved in H2O (2 mL) and, if needed, dioxane (2 mL) was added to form a solution. The powder former solution was added to the Δ^9-THC solution in the round bottom flask. The round bottom flask was then submerged in a dry ice/acetone bath or liquid nitrogen to freeze the solution while continuously rotating the flask by hand to maximize surface area and form an even, thin layer around the flask. Once frozen, the round bottom flask was attached to a LabConco lyophilizer with an Edwards RV8 vacuum pump pre-equilibrated at ^˜−50° C. Samples were left overnight (18 hrs) and removed the next day.
Δ^9-THC and several powder formers were lyophilized using the described procedure to determine if a flowable powder would result.

CCCCCc1cc(O)c2c(c1)OC(C)(C)[C@@H]1CCC(C)=C[C@@H]21 [Δ^9-THC, (−)-trans-Δ^9-tetrahydrocannabinol]
Result of lyophilizing without a powder former (from dioxane alone): gel
Result of lyophilizing without a powder former (from dioxane/water (~75/25 by volume)): tacky gel
